Laboratory results published in ChEMBL document CHEMBL1143939, “Binding effect and design of a competitive inhibitory peptide for HMG-CoA reductase through modeling of an active peptide backbone” (Bioorg Med Chem, 2008).
Calls of active or inactive are those of the source. The calls are words filed in the database; no cut-off is given here. Non-standard residues stand in square brackets, D forms with d. Residues, ends and D or L forms follow the SMILES beside them. Phe(4-F) = N[C@@H](Cc1ccc(F)cc1)C(=O)O

Legend:
[1] = target: T1, 3-hydroxy-3-methylglutaryl-coenzyme A reductase (Mesocricetus auratus, UniProt P09610); assay: (§1) Inhibition of Syrian hamster HMGR
T1 sequence (P09610 whole entry): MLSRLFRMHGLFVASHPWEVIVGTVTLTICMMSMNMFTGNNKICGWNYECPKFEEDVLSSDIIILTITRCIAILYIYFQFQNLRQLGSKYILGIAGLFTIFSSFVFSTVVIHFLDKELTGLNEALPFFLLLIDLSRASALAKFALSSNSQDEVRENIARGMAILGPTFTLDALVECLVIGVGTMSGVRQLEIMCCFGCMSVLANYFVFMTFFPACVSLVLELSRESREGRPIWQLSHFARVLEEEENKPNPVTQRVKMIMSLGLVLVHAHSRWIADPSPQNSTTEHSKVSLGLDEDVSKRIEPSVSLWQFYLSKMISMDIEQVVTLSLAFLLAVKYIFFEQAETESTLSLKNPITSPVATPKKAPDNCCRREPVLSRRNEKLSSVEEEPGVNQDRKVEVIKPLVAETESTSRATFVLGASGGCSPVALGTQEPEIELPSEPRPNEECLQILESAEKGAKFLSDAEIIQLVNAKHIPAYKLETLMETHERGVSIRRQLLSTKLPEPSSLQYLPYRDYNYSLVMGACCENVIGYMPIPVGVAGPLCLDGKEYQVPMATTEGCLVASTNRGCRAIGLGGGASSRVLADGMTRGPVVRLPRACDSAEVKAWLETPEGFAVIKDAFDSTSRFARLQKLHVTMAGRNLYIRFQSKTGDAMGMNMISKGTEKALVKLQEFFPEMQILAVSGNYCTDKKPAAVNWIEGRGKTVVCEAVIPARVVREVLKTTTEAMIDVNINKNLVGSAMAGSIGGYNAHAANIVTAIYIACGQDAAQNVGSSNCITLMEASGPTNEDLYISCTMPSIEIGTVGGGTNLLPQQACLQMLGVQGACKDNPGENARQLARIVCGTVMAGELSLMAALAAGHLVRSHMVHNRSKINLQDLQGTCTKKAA

[2] = target: T2, 3-hydroxy-3-methylglutaryl-coenzyme A reductase (Mesocricetus auratus) (UniProt P09610); assay: as §1
T2 sequence (whole entry): T1 sequence (P09610 whole entry)

| Molecule | IC50 [1] [µM] | Activity [2] |
| --- | --- | --- |
| CC(C)[C@H](NC(=O)[C@@H](N)Cc1ccccc1)C(=O)N[C@@H](C)C(=O)N[C@@H](CCC(=O)O)C(=O)O (H-FVAE-OH) | 43.8 |  |
| CC(C)[C@H](NC(=O)CN)C(=O)N[C@@H](C)C(=O)N[C@@H](CCC(=O)O)C(=O)O (H-GVAE-OH) |  | inactive |
| CC[C@H](C)[C@H](N)C(=O)N[C@@H](C)C(=O)N[C@H](C(=O)N[C@@H](CCC(=O)O)C(=O)O)C(C)C (H-IAVE-OH) | 75.2 |  |
| CC[C@H](C)[C@H](N)C(=O)N[C@@H](C)C(=O)N[C@H](C(=O)N1CCC[C@H]1C(=O)O)C(C)C (H-IAVP-OH) | 97.1 |  |
| CC[C@H](C)[C@H](N)C(=O)N[C@H](C(=O)N[C@@H](C)C(=O)N[C@@H](CCC(=O)O)C(=O)O)C(C)C (H-IVAE-OH) | 44.1 |  |
| CC(C)C[C@H](N)C(=O)N1CCC[C@H]1C(=O)N[C@@H](Cc1ccc(O)cc1)C(=O)N1CCC[C@H]1C(=O)O (H-LPYP-OH) | 485 |  |
| CC(C)[C@H](NC(=O)[C@H](C)NC(=O)[C@@H](N)Cc1ccc(O)cc1)C(=O)N[C@@H](CCC(=O)O)C(=O)O (H-YAVE-OH) | 52.6 |  |
| CC(C)[C@H](NC(=O)[C@@H](N)Cc1ccc(O)cc1)C(=O)N[C@@H](C)C(=O)N[C@@H](CCC(=O)O)C(=O)O (H-YVAE-OH) | 41.8 |  |
| CC(C)[C@H](NC(=O)[C@@H](N)Cc1ccc(F)cc1)C(=O)N[C@@H](C)C(=O)N[C@@H](CCC(=O)O)C(=O)O (H-[Phe(4-F)]VAE-OH) | 3.8 |  |
| H-GFPDGG-OH | 1.5 |  |
| H-GFPEGG-OH | 1.7 |  |
| H-GFPTGG-OH | 16.9 |  |
| H-GGPTGG-OH |  | inactive |
| H-GLPDGG-OH | 22.3 |  |
| H-GLPEGG-OH | 27.2 |  |
| H-GLPTGG-OH | 19.4 |  |
| H-IAVPGEVA-OH | 152 |  |
